Experimental data from patent publication US6214537A, “Synthetic peptides and mixtures thereof for detecting HIV antibodies” (Biochem Immunosystems, Inc., priority 1988, dated 2001).

Assays:
HIV-2 antibodies = experiment: ELISA, single peptides identifying HIV-2 positive sera; assay type: binding, human; details: 5 tested
Procedure: A preferred convenient and classical technique for the determination of antibodies against AIDS virus using a peptide or a peptide mixture of the present invention is an enzyme-linked immunosorbent assay (ELISA). According to this test a peptide or a peptide mixture of the present invention is adsorbed onto the wells of a microtiter plate. The wells are then treated with sera to be tested. After washing, anti-human IgG labeled with peroxidase is added to the wells. The determination of the peroxidase is performed with a corresponding substrate, e.g. with o-phenylene diamine. Also in this procedure the peroxidase can be exchanged by another label, e.g. by a radioactive or fluorescence label.
The cyclic peptides of the present invention and their mixtures with one or more linear peptides were tested in accordance with the ELISA test described previously against a variety of sera, some of which were confirmed positive and others which were confirmed negative.
TABLE 4 provides the results of single peptides which were individually evaluated in identifying known HIV-2 positive sera.
Each well of the microtiter plate is saturated with 100 μl of a solution containing a peptide or mixture of peptides (5 μg/ml) and left overnight. The wells are emptied and washed twice with a washing buffer (Tris, 0.043M; NaCl, 0.5M;thimerosal, 0.01% w/v; Tween 20, 0.05% v/v; pH 7.4). The wells are then saturated with 0.35 ml of washing buffer for 1 hr. at 37° C. and washed once with the same buffer. Serum samples to be analyzed are diluted with specimen buffer (washing buffer plus casein, 0.05% w/v). The wells are rinsed with washing buffer prior to the addition of the diluted serum sample (0.1 ml). These are left to incubate for 1 hr. at room temperature. The wells are then emptied, washed twice rapidly and then once for two minutes with washing buffer. […] The wells are then emptied and washed twice rapidly with washing buffer and then five times in which the buffer was in contact with the well 2 minutes per washing.
The substrate solution (3,3', 5,5'-tetramethylbenzidine, 8 mg per ml of DMSO) is diluted with 100 volumes 0.1M citrate-acetate buffer, pH 5.6 containing 0.1% v/v of 30% H2 O2 and added to each well (0.1 ml per well). After 10 minutes the contents of each well is treated with 0.1 ml 2N H2 SO4 and the optical density read at 450 nm. All determinations are done in duplicate.

HIV-1 antibodies = details: cited from earlier work; for sensitivity: HIV-1 seropositive samples, literature

Compound	% Positive Sera correctly Identified (HIV-2 antibodies) [%]	also measured
CC[C@H](C)[C@H](NC(=O)[C@H](C)NC(=O)[C@@H](NC(=O)[C@@H](NC(=O)[C@@H](N)CCCNC(=N)N)C(C)C)[C@@H](C)O)C(=O)N[C@@H](CCC(=O)O)C(=O)N[C@@H](CCCCN)C(=O)N[C@@H](Cc1ccc(O)cc1)C(=O)N[C@@H](CC(C)C)C(=O)N[C@@H](CCC(N)=O)C(=O)N[C@@H](CC(=O)O)C(=O)N[C@@H](CCC(N)=O)C(=O)N[C@@H](C)C(=O)N[C@@H](CCCNC(=N)N)C(=O)N[C@@H](CC(C)C)C(=O)N[C@@H](CC(N)=O)C(=O)N[C@@H](CO)C(=O)N[C@@H](Cc1c[nH]c2ccccc12)C(=O)NCC(=O)N[C@H]1CSSC[C@@H](C(N)=O)NC(=O)[C@H](C(C)C)NC(=O)[C@H](CCC(N)=O)NC(=O)[C@H](CCCNC(=N)N)NC(=O)[C@H](Cc2ccccc2)NC(=O)[C@H](C)NC1=O [Peptide 146]	100	–
7-mer peptide: SGKLIC with a cysteine residue added to the N-terminus (605-611), Gnann et al.	–	sensitivity (HIV-1 antibodies): 48%
CC[C@H](C)[C@H](NC(=O)[C@H](CCC(=O)O)NC(=O)[C@@H](NC(=O)[C@@H](N)CC(C)C)C(C)C)C(=O)N[C@H](C(=O)N1CCC[C@H]1C(=O)N[C@H](C(=O)NCC(=O)N[C@@H](Cc1ccccc1)C(=O)N[C@@H](C)C(=O)N1CCC[C@H]1C(=O)N[C@H](C(=O)N[C@@H](CCCCN)C(=O)N[C@@H](CCC(=O)O)C(=O)N[C@@H](CCCCN)C(=O)N[C@@H](CCCNC(=N)N)C(=O)N[C@@H](Cc1ccc(O)cc1)C(=O)N[C@@H](CO)C(=O)N[C@@H](CO)C(=O)N[C@@H](C)C(=O)N[C@@H](Cc1c[nH]cn1)C(=O)NCC(=O)N[C@@H](CCCNC(=N)N)C(=O)O)[C@@H](C)O)[C@@H](C)CC)[C@@H](C)O [Peptide 203]	100	–
CC(C)[C@@H]1NC(=O)[C@H](CCC(N)=O)NC(=O)[C@H](CCCNC(=N)N)NC(=O)[C@H](Cc2ccccc2)NC(=O)[C@H](C)NC(=O)[C@@H](NC(=O)CN)CSSC[C@@H](C(=O)N[C@@H](Cc2c[nH]cn2)C(=O)N[C@H](C(=O)N[C@H](C(=O)N[C@H](C(=O)N2CCC[C@H]2C(=O)N[C@@H](Cc2c[nH]c3ccccc23)C(=O)N[C@H](C(=O)N[C@@H](CC(N)=O)C(=O)N[C@@H](CC(=O)O)C(=O)N[C@@H](CO)C(=O)O)C(C)C)C(C)C)[C@@H](C)O)[C@@H](C)O)NC1=O [Peptide 201]	100	–
CC[C@H](C)[C@H](NC(=O)[C@H](CCC(=O)O)NC(=O)[C@@H](NC(=O)[C@@H](N)CC(C)C)C(C)C)C(=O)N[C@H](C(=O)N1CCC[C@H]1C(=O)N[C@H](C(=O)NCC(=O)N[C@@H](Cc1ccccc1)C(=O)N[C@@H](C)C(=O)N1CCC[C@H]1C(=O)N[C@H](C(=O)N[C@@H](CCCCN)C(=O)N[C@@H](CCC(=O)O)C(=O)N[C@@H](CCCCN)C(=O)N[C@@H](CCCNC(=N)N)C(=O)O)[C@@H](C)O)[C@@H](C)CC)[C@@H](C)O [Peptide 204]	100	–
CC(=O)N[C@@H](CCC(N)=O)C(=O)N[C@@H](CC(=O)O)C(=O)N[C@@H](CCC(N)=O)C(=O)N[C@@H](C)C(=O)N[C@@H](CCCNC(=N)N)C(=O)N[C@@H](CC(C)C)C(=O)N[C@@H](CC(N)=O)C(=O)N[C@@H](CO)C(=O)N[C@@H](Cc1c[nH]c2ccccc12)C(=O)NCC(=O)N[C@H]1CSSC[C@@H](C(N)=O)NC(=O)[C@H](C(C)C)NC(=O)[C@H](CCC(N)=O)NC(=O)[C@H](CCCNC(=N)N)NC(=O)[C@H](Cc2ccccc2)NC(=O)[C@H](C)NC1=O [Peptide 200]	100	–
SGKLICTTAVPWNAS [short synthetic peptide covering residues 606 to 620 of gp41 (HIV-1), U.S. Ser. No. 120,027]	–	sensitivity (HIV-1 antibodies): 89%; specificity (samples correctly identified) (HIV-1 antibodies; U.S. Ser. No. 120,027): 63/63
CC[C@H](C)[C@H](NC(=O)[C@H](C)NC(=O)[C@@H](NC(=O)[C@@H](NC(=O)[C@@H](N)CCCNC(=N)N)C(C)C)[C@@H](C)O)C(=O)N[C@@H](CCC(=O)O)C(=O)N[C@@H](CCCCN)C(=O)N[C@@H](Cc1ccc(O)cc1)C(=O)N[C@@H](CC(C)C)C(=O)N[C@@H](CCC(N)=O)C(=O)N[C@@H](CC(=O)O)C(=O)N[C@@H](CCC(N)=O)C(=O)N[C@@H](C)C(=O)N[C@@H](CCCNC(=N)N)C(=O)N[C@@H](CC(C)C)C(=O)N[C@@H](CC(N)=O)C(=O)N[C@@H](CO)C(=O)N[C@@H](Cc1c[nH]c2ccccc12)C(=O)NCC(=O)N[C@H]1CSSC[C@@H](C(=O)N[C@@H](Cc2c[nH]cn2)C(=O)N[C@H](C(=O)N[C@H](C(=O)N[C@H](C(=O)N2CCC[C@H]2C(=O)N[C@@H](Cc2c[nH]c3ccccc23)C(=O)N[C@H](C(=O)N[C@@H](CC(N)=O)C(=O)N[C@@H](CC(=O)O)C(=O)N[C@@H](CO)C(=O)O)C(C)C)C(C)C)[C@@H](C)O)[C@@H](C)O)NC(=O)[C@H](C(C)C)NC(=O)[C@H](CCC(N)=O)NC(=O)[C@H](CCCNC(=N)N)NC(=O)[C@H](Cc2ccccc2)NC(=O)[C@H](C)NC1=O [Peptide 202]	100	–
CC(C)C[C@H](NC(=O)[C@H](CCCNC(=N)N)NC(=O)[C@H](C)NC(=O)[C@H](CCC(N)=O)NC(=O)[C@H](CC(=O)O)NC(=O)[C@@H](N)CCC(N)=O)C(=O)N[C@@H](CC(N)=O)C(=O)N[C@@H](CO)C(=O)N[C@@H](Cc1c[nH]c2ccccc12)C(=O)NCC(=O)N[C@H]1CSSC[C@@H](C(=O)N[C@@H](Cc2c[nH]cn2)C(=O)N[C@H](C(=O)N[C@H](C(=O)N[C@H](C(=O)N2CCC[C@H]2C(=O)N[C@@H](Cc2c[nH]c3ccccc23)C(=O)N[C@H](C(=O)N[C@@H](CC(N)=O)C(=O)N[C@@H](CC(=O)O)C(=O)N[C@@H](CO)C(N)=O)C(C)C)C(C)C)[C@@H](C)O)[C@@H](C)O)NC(=O)[C@H](C(C)C)NC(=O)[C@H](CCC(N)=O)NC(=O)[C@H](CCCNC(=N)N)NC(=O)[C@H](Cc2ccccc2)NC(=O)[C@H](C)NC1=O [Peptide 147]	100	–
SGKLIC	–	immunoreactivity with HIV-1 positive sera (HIV-1 antibodies; 22 HIV-1 positive sera tested, Gnann et al.): not immunoreactive
